Experimental data from PubChem BioAssay (NCI).
Values joined by “and” are separate entries in the source; they are usually repeats but may differ in a detail not shown here. Identical values can stand only once.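 Cells were grown in 96-well plates and exposed to each compound for 48 hours at five concentrations; endpoints were interpolated linearly between bracketing concentrations, or set to the highest concentration if not reached. GI50 marks 50% less growth. Definition used: TGI = concentration required for complete inhibition of growth.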

Tests used:
Test in all cases: inhibition of tumour cell growth, NCI panel, 48 h
HCT-116 colon = system: HCT-116 colon
ACHN renal = system: ACHN renal
OVCAR-8 ovarian = system: OVCAR-8 ovarian
786-0 renal = system: 786-0 renal
MDA-MB-435 = system: MDA-MB-435
UO-31 renal = system: UO-31 renal
T-47D breast = system: T-47D breast
HCC-2998 colon = system: HCC-2998 colon
BT-549 breast = system: BT-549 breast
SW-620 colon = system: SW-620 colon
OVCAR-5 ovarian = system: OVCAR-5 ovarian
MOLT-4 leukemia = system: MOLT-4 leukemia
OVCAR-4 ovarian = system: OVCAR-4 ovarian
LOX IMVI melanoma = system: LOX IMVI melanoma
SK-MEL-5 melanoma = system: SK-MEL-5 melanoma
A498 renal = system: A498 renal
CCRF-CEM leukemia = system: CCRF-CEM leukemia
NCI/ADR-RES ovarian = system: NCI/ADR-RES ovarian
RPMI-8226 leukemia = system: RPMI-8226 leukemia
SK-OV-3 ovarian = system: SK-OV-3 ovarian
SN12C renal = system: SN12C renal
MDA-N = system: MDA-N
MALME-3M melanoma = system: MALME-3M melanoma
A549 NSCLC = system: A549 NSCLC
MCF7 breast = system: MCF7 breast
HOP-92 NSCLC = system: HOP-92 NSCLC
M14 melanoma = system: M14 melanoma
HCT-15 colon = system: HCT-15 colon
HL-60(TB) leukemia = system: HL-60(TB) leukemia

CN(C)CCSC1=Nc2ccc(Cl)cc2C(c2ccccc2Cl)=NC1
TGI (HCT-116 colon): 31.1 µM and > 100 µM | GI50 (ACHN renal): 14 µM and > 100 µM | TGI (ACHN renal): 26.9 µM and > 100 µM | GI50 (OVCAR-8 ovarian): 6.63 µM and 43.5 µM | TGI (OVCAR-8 ovarian): 20.2 µM and > 100 µM | GI50 (786-0 renal): 14.3 µM and > 100 µM | TGI (786-0 renal): 31.5 µM and > 100 µM | TGI (MDA-MB-435): 28.4 µM and 38.7 µM | GI50 (UO-31 renal): 9.23 µM and 53.4 µM | TGI (UO-31 renal): 21.8 µM and > 100 µM | GI50 (T-47D breast): 19.2 µM and 78.3 µM | TGI (T-47D breast): 47.3 µM and > 100 µM | GI50 (HCC-2998 colon): 13.4 µM and > 100 µM | TGI (HCC-2998 colon): 30.3 µM and > 100 µM | TGI (BT-549 breast): > 100 µM | GI50 (SW-620 colon): 16.6 µM and 33.5 µM | TGI (SW-620 colon): 34 µM and > 100 µM | GI50 (OVCAR-5 ovarian): 18.6 µM and > 100 µM | TGI (OVCAR-5 ovarian): 34.4 µM and > 100 µM | TGI (MOLT-4 leukemia): > 100 µM and 94.3 µM | TGI (OVCAR-4 ovarian): > 100 µM | GI50 (LOX IMVI melanoma): 15.6 µM and 69.7 µM | TGI (LOX IMVI melanoma): 30.9 µM and > 100 µM | GI50 (SK-MEL-5 melanoma): 15 µM and 43.3 µM | TGI (SK-MEL-5 melanoma): 28.7 µM and > 100 µM | GI50 (A498 renal): 18.7 µM and > 100 µM | TGI (A498 renal): 34.2 µM and > 100 µM | GI50 (CCRF-CEM leukemia): 21.5 µM and 46.2 µM | TGI (CCRF-CEM leukemia): 82.1 µM and > 100 µM | GI50 (NCI/ADR-RES ovarian): 15 µM and 42.4 µM | TGI (NCI/ADR-RES ovarian): 37.1 µM and > 100 µM | GI50 (RPMI-8226 leukemia): 16.2 µM and 49.4 µM | TGI (RPMI-8226 leukemia): 40.6 µM and > 100 µM | GI50 (SK-OV-3 ovarian): 16.9 µM and 63.1 µM | TGI (SK-OV-3 ovarian): 33.6 µM and > 100 µM | GI50 (SN12C renal): 13.5 µM and > 100 µM | TGI (SN12C renal): 26.5 µM and > 100 µM | GI50 (MDA-N): 11.8 µM and 25.1 µM | TGI (MDA-N): 25.8 µM and 89.1 µM | GI50 (MALME-3M melanoma): 13.5 µM and > 100 µM | TGI (MALME-3M melanoma): 28.3 µM and > 100 µM | GI50 (A549 NSCLC): 13.8 µM and 88.8 µM | TGI (A549 NSCLC): 31.7 µM and > 100 µM | GI50 (MCF7 breast): 12 µM and 67.4 µM | TGI (MCF7 breast): 25.5 µM and > 100 µM | GI50 (HOP-92 NSCLC): 12.3 µM and 72.3 µM | TGI (HOP-92 NSCLC): 31.7 µM and > 100 µM | GI50 (M14 melanoma): 15.8 µM and > 100 µM | TGI (M14 melanoma): 36.4 µM and > 100 µM | GI50 (HCT-15 colon): 12 µM and 37.8 µM | TGI (HCT-15 colon): 25.2 µM and > 100 µM | TGI (HL-60(TB) leukemia): 66.5 µM and 80.4 µM
